# Laboratory results reported in ChEMBL document CHEMBL4270599, “Synthesis of a 3'-C-ethynyl-β-d-ribofuranose purine nucleoside library: Discovery of C7-deazapurine analogs as potent antiproliferative nucleosides” (Eur J Med Chem, 2018).
# Columns and labels:
# Assay type in all cases: functional
# [1] = test system: DU-145; assay: Growth inhibition of human DU145 cells assessed as cell growth at 10^-6 M incubated for 48 hrs by sulforhodamine B assay relative to control; conditions: DU-145, 48 h, read-out: Activity
# [2] = test system: COLO 205; assay: Cytotoxicity against human COLO205 cells after 48 hrs by SRB assay; conditions: COLO 205, 48 h
# [3] = test system: SW-620; assay: Cytotoxicity against human SW620 cells after 48 hrs by SRB assay; conditions: SW-620, 48 h
# [4] = test system: SR; assay: Growth inhibition of human SR cells assessed as cell growth at 10^-6 M incubated for 48 hrs by sulforhodamine B assay relative to control; conditions: read-out: Activity
# [5] = test system: OVCAR-4; assay: Growth inhibition of human OVCAR4 cells assessed as cell growth at 10^-5 M incubated for 48 hrs by sulforhodamine B assay relative to control; conditions: OVCAR-4, 48 h, read-out: Activity
# [6] = test system: BT-549; assay: Growth inhibition of human BT549 cells assessed as cell growth at 10^-8 M incubated for 48 hrs by sulforhodamine B assay relative to control; conditions: BT-549, 48 h, read-out: Activity
# [7] = test system: ACHN; assay: Growth inhibition of human ACHN cells assessed as cell growth at 10^-8 M incubated for 48 hrs by sulforhodamine B assay relative to control; conditions: read-out: Activity
# [8] = test system: HCC 2998; assay: Growth inhibition of human HCC2998 cells assessed as cell growth at 10^-8 M incubated for 48 hrs by sulforhodamine B assay relative to control; conditions: HCC 2998, 48 h, read-out: Activity
# [9] = test system: RXF 393; assay: Growth inhibition of human RXF393 cells assessed as cell growth at 10^-7 M incubated for 48 hrs by sulforhodamine B assay relative to control; conditions: RXF 393, 48 h, read-out: Activity
# [10] = test system: OVCAR-4; assay: Growth inhibition of human OVCAR4 cells assessed as cell growth at 10^-7 M incubated for 48 hrs by sulforhodamine B assay relative to control; conditions: OVCAR-4, 48 h, read-out: Activity
# [11] = test system: NCI-H226; assay: Growth inhibition of human NCI-H226 cells assessed as cell growth at 10^-6 M incubated for 48 hrs by sulforhodamine B assay relative to control; conditions: NCI-H226, 48 h, read-out: Activity
# [12] = test system: MCF7; assay: Growth inhibition of human MCF7 cells assessed as cell growth at 10^-6 M incubated for 48 hrs by sulforhodamine B assay relative to control; conditions: MCF7, 48 h, read-out: Activity
# [13] = test system: BT-549; assay: Cytotoxicity against human BT549 cells after 48 hrs by SRB assay; conditions: BT-549, 48 h
# [14] = test system: ACHN; assay: Growth inhibition of human ACHN cells assessed as cell growth at 10^-4 M incubated for 48 hrs by sulforhodamine B assay relative to control; conditions: read-out: Activity
# [15] = test system: SF-268; assay: Growth inhibition of human SF268 cells assessed as cell growth at 10^-7 M incubated for 48 hrs by sulforhodamine B assay relative to control; conditions: SF-268, 48 h, read-out: Activity
# [16] = test system: EKVX; assay: Growth inhibition of human EKVX cells assessed as cell growth at 10^-7 M incubated for 48 hrs by sulforhodamine B assay relative to control; conditions: read-out: Activity
# [17] = test system: DU-145; assay: Growth inhibition of human DU145 cells assessed as cell growth at 10^-8 M incubated for 48 hrs by sulforhodamine B assay relative to control; conditions: DU-145, 48 h, read-out: Activity
# [18] = test system: K562; assay: Cytotoxicity against human K562 cells after 48 hrs by SRB assay; conditions: K562, 48 h
# [19] = test system: SR; assay: Growth inhibition of human SR cells assessed as cell growth at 10^-7 M incubated for 48 hrs by sulforhodamine B assay relative to control; conditions: read-out: Activity
# [20] = test system: SK-MEL-28; assay: Growth inhibition of human SK-MEL-28 cells assessed as cell growth at 10^-7 M incubated for 48 hrs by sulforhodamine B assay relative to control; conditions: SK-MEL-28, 48 h, read-out: Activity
# [21] = test system: IGROV-1; assay: Growth inhibition of human IGROV1 cells assessed as cell growth at 10^-7 M incubated for 48 hrs by sulforhodamine B assay relative to control; conditions: IGROV-1, 48 h, read-out: Activity
# [22] = test system: SR; assay: Growth inhibition of human SR cells assessed as cell growth at 10^-4 M incubated for 48 hrs by sulforhodamine B assay relative to control; conditions: read-out: Activity
# [23] = test system: NCI-H226; assay: Growth inhibition of human NCI-H226 cells assessed as cell growth at 10^-5 M incubated for 48 hrs by sulforhodamine B assay relative to control; conditions: NCI-H226, 48 h, read-out: Activity
# [24] = test system: OVCAR-5; assay: Growth inhibition of human OVCAR5 cells assessed as cell growth at 10^-4 M incubated for 48 hrs by sulforhodamine B assay relative to control; conditions: OVCAR-5, 48 h, read-out: Activity
# [25] = test system: NCI-H23; assay: Growth inhibition of human NCI-H23 cells assessed as cell growth at 10^-7 M incubated for 48 hrs by sulforhodamine B assay relative to control; conditions: NCI-H23, 48 h, read-out: Activity
# [26] = test system: K562; assay: Growth inhibition of human K562 cells assessed as cell growth at 10^-5 M incubated for 48 hrs by sulforhodamine B assay relative to control; conditions: K562, 48 h, read-out: Activity
# [27] = test system: MOLT-4; assay: Growth inhibition of human MOLT4 cells assessed as cell growth at 10^-7 M incubated for 48 hrs by sulforhodamine B assay relative to control; conditions: MOLT-4, 48 h, read-out: Activity
# [28] = test system: ACHN; assay: Growth inhibition of human ACHN cells assessed as cell growth at 10^-5 M incubated for 48 hrs by sulforhodamine B assay relative to control; conditions: read-out: Activity
# [29] = test system: Hs-578T; assay: Growth inhibition of human Hs 578T cells assessed as cell growth at 10^-8 M incubated for 48 hrs by sulforhodamine B assay relative to control; conditions: read-out: Activity
# [30] = test system: K562; assay: Growth inhibition of human K562 cells assessed as cell growth at 10^-6 M incubated for 48 hrs by sulforhodamine B assay relative to control; conditions: K562, 48 h, read-out: Activity
# [31] = test system: EKVX; assay: Growth inhibition of human EKVX cells assessed as cell growth at 10^-8 M incubated for 48 hrs by sulforhodamine B assay relative to control; conditions: read-out: Activity
# [32] = test system: UACC-62; assay: Growth inhibition of human UACC62 cells assessed as cell growth at 10^-7 M incubated for 48 hrs by sulforhodamine B assay relative to control; conditions: UACC-62, 48 h, read-out: Activity
# [33] = test system: MDA-MB-231; assay: Growth inhibition of human MDA-MB-231 cells assessed as cell growth at 10^-8 M incubated for 48 hrs by sulforhodamine B assay relative to control; conditions: MDA-MB-231, 48 h, read-out: Activity
# [34] = test system: MOLT-4; assay: Cytotoxicity against human MOLT4 cells after 48 hrs by SRB assay; conditions: MOLT-4, 48 h
# [35] = read-out: pLC50 (the source's name) (converted)
# [36] = read-out: LC50 (the source's name)
smiles,measurement,setting,value
C#C[C@@]1(O)[C@@H](CO)O[C@@H](n2cc(F)c3c(N)ncnc32)[C@@H]1O,growth at 1 µM,[1],16%
same,GI50,[2]; read-out: GI50,263 nM
same,TGI,[2]; read-out: TGI,1300 nM
same,GI50,[2]; read-out: pGI50 (converted),263 nM
same,CC50,[2]; [35],9330 nM
same,TGI,[2]; read-out: pTGI (converted),1290 nM
same,CC50,[3]; [36],> 100000 nM
same,TGI,[3]; read-out: TGI,2900 nM
same,GI50,[3]; read-out: pGI50 (converted),158 nM
same,TGI,[3]; read-out: pTGI (converted),2880 nM
same,growth at 1 µM,[4],9%
same,growth at 10 µM,[5],-3%
same,growth at 0.01 µM,[6],98%
same,growth at 0.01 µM,[7],102%
same,growth at 0.01 µM,[8],98%
same,growth at 0.1 µM,[9],102%
same,growth at 0.1 µM,[10],90%
same,growth at 1 µM,[11],32%
same,growth at 1 µM,[12],-8%
same,CC50,[13]; [36],> 100000 nM
same,TGI,[13]; read-out: TGI,4180 nM
same,GI50,[13]; read-out: pGI50 (converted),851 nM
same,TGI,[13]; read-out: pTGI (converted),4170 nM
same,growth at 100 µM,[14],2%
same,growth at 0.1 µM,[15],105%
same,growth at 0.1 µM,[16],86%
same,growth at 0.01 µM,[17],103%
same,CC50,[18]; [36],> 100000 nM
same,TGI,[18]; read-out: TGI,> 100000 nM
same,GI50,[18]; read-out: pGI50 (converted),288 nM
same,TGI,[18]; read-out: pTGI,> 100000 nM
same,growth at 0.1 µM,[19],65%
same,growth at 0.1 µM,[20],95%
same,growth at 0.1 µM,[21],96%
same,growth at 100 µM,[22],3%
same,growth at 10 µM,[23],-44%
same,growth at 100 µM,[24],7%
same,growth at 0.1 µM,[25],91%
same,growth at 10 µM,[26],8%
same,growth at 0.1 µM,[27],86%
same,growth at 10 µM,[28],2%
same,growth at 0.01 µM,[29],92%
same,growth at 1 µM,[30],16%
same,growth at 0.01 µM,[31],94%
same,growth at 0.1 µM,[32],91%
same,growth at 0.01 µM,[33],99%
same,TGI,[34]; read-out: TGI,> 100000 nM
same,GI50,[34]; read-out: pGI50 (converted),302 nM
same,CC50,[34]; [35],> 100000 nM
same,TGI,[34]; read-out: pTGI (converted),> 100000 nM
